Assay results reported in BindingDB's records for doi:10.1021/jm00089a012 (Merck Sharp and Dohme Research Laboratories, 1992).

Assay: In vitro for the binding affinity against sigma receptor by using [3H]DTG as radioligand in guinea pig cerebellum

| Compound | IC50 |
| --- | --- |
| CCCCN1CC[C@H]2c3ccccc3CC[C@H]2C1 | 6.3 nM |
| c1ccc2c(c1)CC[C@H]1CN(Cc3ccc4ccccc4c3)CC[C@@H]21 | 81 nM |
| CCCN1CCC2=C(CCc3ccccc32)C1 | 21 nM |
| c1ccc(CCCN2CC[C@H]3c4ccccc4CC[C@H]3C2)cc1 | 4.3 nM |
| O=[N+]([O-])c1ccc(CN2CC[C@H]3c4ccccc4CC[C@H]3C2)cc1 | 8.7 nM |
| CCCCN1CC[C@H]2c3cc(C)cc(C)c3CC[C@H]2C1 | 2 nM |
| Clc1ccc(CN2CC[C@H]3c4ccccc4CC[C@H]3C2)cc1 | 4.7 nM |
| c1ccc(CCN2CC[C@H]3c4ccccc4CC[C@H]3C2)cc1 | 0.324 nM |
| c1ccc(CN2CC[C@H]3c4ccccc4CC[C@H]3C2)nc1 | 17 nM |
| CCCCN1CCC2c3ccccc3CCCC2C1 (centres undefined) | 2.1 nM |
| CCCCN1CC[C@@H]2c3ccccc3CC[C@H]2C1 | 3.1 nM |
| C=CCN1CC[C@H]2c3ccccc3CC[C@H]2C1 | 4.6 nM |
| c1coc(CN2CC[C@H]3c4ccccc4CC[C@H]3C2)c1 | 6.6 nM |
| c1ccc2c(c1)CC[C@H]1CN(C34C[C@H]5C[C@@H](C3)C[C@@H](C4)C5)CC[C@@H]21 | 2.3 nM |
| CCCCN1CCC2=C(Cc3ccccc32)C1 | 1.9 nM |
| CCCCN1CCC2c3ccccc3CC2C1 (centres undefined) | 11 nM |
| c1ccc2c(c1)CC[C@H]1CN(CC3CC3)CC[C@@H]21 | 2.5 nM |
| CN1CC[C@@H]2c3ccccc3CC[C@H]2C1 | 447 nM |
| CN1CC[C@H]2c3ccccc3CC[C@H]2C1 | 339 nM |
| c1csc(CN2CC[C@H]3c4ccccc4CC[C@H]3C2)c1 | 7.1 nM |
| c1ccc2c(c1)CC[C@H]1CN(C3[C@H]4C[C@@H]5C[C@@H](C[C@H]3C5)C4)CC[C@@H]21 (some centres undefined) | 2.2 nM |
| CCCN1CC[C@H]2c3ccccc3CC[C@H]2C1 | 2.6 nM |
| c1ccc2c(c1)CC[C@H]1CN(C3CCCCC3)CC[C@@H]21 | 0.251 nM |
| COc1ccc(CN2CC[C@H]3c4ccccc4CC[C@H]3C2)cc1 | 2 nM |
